Patent publication US11207379B2, “Peptides with anti-cancer activity” (IDP DISCOVERY PHARMA, S.L., priority 2016, dated 2021)
Numbered stars: 1 amine (or outer) side, 2 acyl side, 3 side chain; on linkers, the order of the positions; unused ones are H or OH. Peptide text beside a SMILES is read from it. Suc = O=C(CCC(=O)[*:2])[*:1]

What was measured:
Format in all cases: cell-based
[1] = molecular target: MM.1S, B Lymphoblast (multiple myeloma); experiment: Viability assay (MTT, Alamar Blue, hexosaminidase), 72 h; conditions: MM.1S cells, read-out: EC50
Description: MM.1S, B Lymphoblast (multiple myeloma), ATCC: CRL-2974
(§1) Cell lines A549, MCF-7 and RAMOS were cultured in incubator under CO2 (6%) at 37° C. in DMEM high glucose (Dulbecco's Modified Eagle Solution, Gibco-BRL 31966-21) medium with 10% fetal bovine serum inactivated (FBS) (Gibco-BRL 10106-169). Cell lines HL-60 and MM.1S were cultured in incubator at 37° C. in RPMI-1640 (Sigma R8758) medium with 10% of fetal bovine serum inactivated (FBS) and 2 mM glutamine (Sigma G7513). Cell lines BJ were cultured in incubator under CO2 (6%) at 37° C. in Eagle's Minimum Essential Medium (Sigma, M-2279) with 10% fetal bovine serum inactivated (FBS) (Gibco-BRL 10106-169).
(§2) During the amplification step and the assays adherent cells were rinsed with DPBS (Dulbecco's Phosphate Buffered Saline, Sigma D1283) three times and afterward treated for 5 minutes with trypsin ([…]) (Gibco-BRL, 15400054) in solution of DPBS at 37° C., and, once detached, transferred in the culturing medium. No-adherent cells were centrifuged and transferred in the culturing medium. Cells were counted in a Neubauer chamber after labelling with Tripan-Blue.
(§3) A549, MCF-7 and JB cells were seeded at a density of 5000 cells/well and HL-60, MM.1S and Ramos at 10000 cells/well in 100 μl of medium in 96 well plates. After 24 h, the compounds to be tested were added to calculate the dose/response curve at the starting concentration of 100 μM with serial dilutions (1:1). Controls are the untreated cells. Each experiment was performed in triplicate.
(§4) Cells were incubated during 72 h in incubator under CO2 atmosphere at 37° C. Cell viability was measured by means of MTT (3-(4,5-dimethylthiazol-2-yl)-2.5-diphenyltetrazolium bromide) assay, Alamar Blue® (Biosource DAL1100) and Hexosaminidase activity test, consecutively, following manufacturer instructions.
(§5) MTT: 1. Stock solution of MTT (475989 Calbiochem) was 5 mg/ml in PBS 1×. As negative control (experiment noise) 3 wells were treated with 20 μl/well of a solution of SDS 10% in H2O. The same control was used for Alamar Blue/Hexosaminidase. 10 μl/well of MTT solution were added and the plate was incubated for 3-4 hr. The medium was discarded and 100 μl of extracting buffer (PBS 1×, 15% SDS, 50% […] N,N-Dimethylformamide, pH 4.7) were added to each well. Plates were incubated for 16 h at room temperature under orbital shaking. Absorbance at 570 nm was finally measured.
(§6) Alamar Blue: 10 μl Alamar Blue solution was added to each well and the plates were incubated for […] in the incubator. Fluorescence ratio at 535/590 (excitation/emission) was measured in Cytofluor (Millipore) fluorimeter. Blank control was determined by lysis of untreated cells with con 2% of Triton X100, right before adding Alamar Blue solution.
(§7) Hexosaminidase activity test: after Alamar Blue lecture, medium was discarded and plates were rinsed once with PBS. 60 μl hexosaminidase substrate (p-nitrophenol-N-acetyl-beta-D-glucosamide 7.5 mM [Sigma N-9376], sodium citrate 0.1 M, pH 5.0, 0.25% Triton X-100) was added to each well and the plates were incubated at 37° C. for 2-5 h, according to the cell type (hexosaminidase activity changes according to the cell type). […] Blank control was the same as described before.
(§8) Data analysis was performed calculating the percentage of cell viability normalized vs. the values of negative control, which was considered equal to 100%. The dose/response curve was fitted through the sigmoidal equation dose-response (variable slope) and the EC50 values were calculated as follow: Y=Bottom+(Top−Bottom)/(1+10^{[(Log EC50−X)*HillSlope]},

[2] = molecular target: HL-60, promyeloblast (acute myelocytic leukemia, AML); experiment: as above; conditions: HL-60 cells, read-out: EC50
Description: HL-60, promyeloblast (acute myelocytic leukemia, AML), ECACC: 98070106
as §1, §2, §3, §4, §5, §6, §7, §8

[3] = molecular target: A549, epithelial (lung cancer); experiment: as above; conditions: A549 cells, read-out: EC50
Description: A549, epithelial (lung cancer), ATCC:CCL-185
as §1, §2, §3, §4, §5, §6, §7, §8

[4] = molecular target: RAMOS, B lymphocyte (Burkitt's Lymphoma); experiment: as above; conditions: Ramos cells, read-out: EC50
Description: RAMOS, B lymphocyte (Burkitt's Lymphoma), ATCC: CRL-1596
as §1, §2, §3, §4, §5, §6, §7, §8

[5] = molecular target: MCF-7, epithelial (breast cancer); experiment: as above; conditions: MCF7 cells, read-out: EC50
Description: MCF-7, epithelial (breast cancer), ECACC: 86012803
as §1, §2, §3, §4, §5, §6, §7, §8

[6] = tested on: JB healthy cells (BJ, fibroblast, normal skin); experiment: as above
Description: BJ, fibroblast (normal skin), ATCC® CRL-2522™
as §1
as §2, with “No-adherent cells were centrifuged and transferred in the culturing medium.” left out, “Tripan-Blue. […]” for “Tripan-Blue.”
as §4, with “instructions. […]” for “instructions.”

HL-60 cells = experiment: Annexin V assay by flow cytometry; conditions: for Percentage of HL-60 gated cells (positive to Annexin V): compound at EC30, control = 100%
Description: (§9) Miltenyi Biotec Annexin V-FITC Kit was used. To detect apoptosis in early stage Phosphatidylserine in plasmatic membrane localization was measured, though the calcium dependent reaction with Annexine V. Annexin V molecules were labelled with different fluorophores (FITC) and analyzed by FACS. To detect apoptosis in late stage DNA-intercalating agents, such Propidium iodide (PI) were used.
(§10) Cells were seeded at a density range of 150000-30000 cells/well in 12 wells plates, and incubated at 37° C. in the incubator under CO2 atmosphere. After 24 h, treatments at 4 h, 8 h, 18 h, 48 h and 72 h were performed in cell lines A549, HL-60 and MM.1S, at IC30 and/or IC80, with compounds IDP-S09 and IL-09, in cell lines HL-60 and MM.1S with compound IDP-S04 and in cell line A549 with compounds IDP-S02 and IDP-S03. Staurosporine and compound 100258-F4 (Sigma) were used as positive control and reference compound, respectively.

MM.1S cells = experiment: Annexin V assay by flow cytometry
Description: as §9, §10

A549 cells = experiment: Annexin V assay by flow cytometry
Description: as §9
as §10, with “treatments at 4 h, 8 h, 18 h, 48 h and 72 h were performed in cell lines” left out

[7] = 4 h, compound at EC30, control = 100%
[8] = 4 h, compound at EC80, control = 100%

CC[C@H](C)[C@H](NC(=O)[C@H](Cc1ccc(O)cc1)NC(=O)[C@H](C)NC(=O)[C@H](CC(C)C)NC(=O)[C@H](C)NC(=O)[C@H](CCCCN)NC(=O)[C@H](CCCCN)NC(=O)[C@H](Cc1ccccc1)NC(=O)[C@@H](NC(=O)[C@@H](NC(=O)[C@@H](NC(=O)[C@H](CCCCN)NC(=O)[C@@H]1CCCN1C(=O)[C@H](C)NC(=O)[C@H](CCCNC(=N)N)NC(=O)[C@H](CCCNC(=N)N)NC(=O)[C@H](CCCNC(=N)N)NC(=O)[C@H](CCCNC(=N)N)NC(=O)[C@H](CCCNC(=N)N)NC(=O)[C@H](CCCNC(=N)N)NC(=O)[C@H](CCCNC(=N)N)NC(=O)CCC(=O)O)[C@@H](C)CC)C(C)C)[C@@H](C)CC)C(N)=O [IDP-L09] (Suc-RRRRRRRAPKIVIFKKALAYI-NH2) was tested, and the EC50 [1] was 25 ± 1 µM, the EC50 [2] was 46 ± 6 µM and the EC50 [3] was 48 ± 5 µM. The EC50 [4] was 28 ± 1 µM, the EC50 [5] was ~28 µM and the EC50 [6] was > 100 µM. The “Percentage of HL-60 gated cells (positive to Annexin V)” value (HL-60 cells; 48 h) was 590%, the “Percentage of HL-60 gated cells (positive to Annexin V)” value (HL-60 cells; 72 h) was 230% and the “apoptosis induction (Annexin V by FACS), in words” value (“apoptosis induction” for short) (HL-60 cells; HL-60 cells) was “apoptosis induction is significant after 48 h and 72 h at low concentrations (IC30)”. For the same compound, the “Percentage of MM.1S gated cells (positive to Annexin V)” value (“Percentage of MM.1S gated cells” below) (MM.1S cells; [7]) was 50%, the “Percentage of MM.1S gated cells” value (MM.1S cells; [8]) was 50% and the “Percentage of MM.1S gated cells” value (MM.1S cells; 8 h, compound at EC30, control = 100%) was 220%. The “Percentage of MM.1S gated cells” value (MM.1S cells; 8 h, compound at EC80, control = 100%) was 310%, the “Percentage of MM.1S gated cells” value (MM.1S cells; 48 h, compound at EC30, control = 100%) was 190% and the “Percentage of MM.1S gated cells” value (MM.1S cells; 72 h, compound at EC30, control = 100%) was 500%. For the same compound, the “apoptosis induction” value (MM.1S cells; MM.1S cells) was “induces apoptosis at 8 h, 48 h and 72 h at low concentration (IC30) and at 8 h at high concentration (IC80)”, the “Percentage of A549 gated cells (positive to Annexin V)” value (“Percentage of A549 gated cells” below) (A549 cells; [7]) was 900% and the “Percentage of A549 gated cells” value (A549 cells; [8]) was 2400%. The “Percentage of A549 gated cells” value (A549 cells; 16 h, compound at EC30, control = 100%) was 400%, the “Percentage of A549 gated cells” value (A549 cells; 16 h, compound at EC80, control = 100%) was 950% and the “apoptosis induction” value (A549 cells; A549 cells) was “fast induction (4 h) is observed”.
